We go through five compounds from article PMC6259646, “Role of Intestinal Hydrolase in the Absorption of Prenylated Flavonoids Present in Yinyanghuo” (Molecules, 2011).

One series deals with rat intestine. Nature of the series: four-site single-pass perfused rat intestinal model: effective permeability and metabolite formation. In kind it is in vivo. As to conditions: for metabolites detected in the perfusate: HPLC; for identity of intestinal metabolite: rat intestinal perfusate, LC/MS/MS, loss of saccharide group at C7. The source says: Male Sprague-Dawley rats weighing between 250 and 300 g were obtained from the SLEK Lab Animal Center of Shanghai (Shanghai, China). The rats were fed with water and a standard diet. The rats were fasted overnight before the day of the experiment.
The surgical procedures were approved by the Animal Ethics Committee of Jiangsu Provincial Academy of Chinese Medicine. Anesthesia was induced by an i.m. injection of urethane (0.5 g/mL). After the rat was anesthetized, it was put over a heating blanket and under a heating lamp to keep its normal body temperature. We then cannulated four segments of the intestine, each with two cannulae. After each cannula was inserted, it was secured with a sterilized black suture before the next cannula was inserted and secured. First, the duodenum was located as the intestinal segment immediately adjacent to the stomach, and two cannulae at 10 cm apart were inserted into two ends of the duodenum and secured with suture. Next, the jejunum was located below the duodenum, and the first cannula was inserted at 4 cm below the duodenal outlet cannula, whereas the second cannula was inserted at 10 cm below the first jejunal cannula. Then, the terminal ileum was located by identifying the ileocecal junction of the rat intestine. The outlet cannula was inserted into the ileum at 2 cm above the junction, and the inlet cannula was inserted 10 cm above the outlet cannula. Lastly, the colon inlet cannula was inserted into the colon at 2 cm below the junction, and the outlet cannula was inserted through the anus. After cannulation, the small intestinal segments were placed carefully into the abdominal cavity, avoiding crimping or kinking of the segments. The incision was then covered by a normal saline-wetted paper towel. A piece of plastic wrap was put on the towel to keep the intestinal segments moist. Additionally, caution was also exercised to keep the inlet and outlet cannulate at the same height to avoid gravitational flow. To keep the temperature of the perfusate constant, the inlet cannulate was kept warm by a 37°C circulating water bath.
This is a single-pass perfusion method. Four segments of the intestine (duodenum, upper jejunum, terminal ileum, and colon) were perfused simultaneously with a perfusate containing the compound of interest using an infusion pump (Harvard Apparatus, Cambridge, MA, USA) at a flow rate of 0.2 mL/min. After a 30-min washout period, which is usually sufficient to achieve the steady-state absorption, four samples were collected from the outlet cannulae every 30 min afterward. After perfusion, the length of the intestine was measured as described previously The outlet concentrations of the test compounds in the luminal perfusate were determined by HPLC or LC/MS/MS.
The samples were separated on a Zorbax SB-C18 column (250 mm × 4.6 mm, 5 μm, Agilent). The mobile phase consisted of acetonitrile (A) and water containing 0.1% acetic acid (B). […] For MS analysis, the electro spray ionization (ESI) source was operated in the positive ion mode.
In the perfused rat intestinal model, Peff^* (effective permeability) is a representation of the intestinal membrane permeability. Peff^* of the compounds are calculated using the following equations: Peff^∗=1−Cm/Co/4Gz where Co and Cm are inlet and outlet concentrations, respectively; Gz, or Graetz number ( Gz=πDL/2Q ), is a scaling factor that incorporates flow rate (Q), intestinal length (L), and diffusion coefficients (D) to make the permeability dimensionless. Cm was adjusted for water flux, data points were discarded if the water flux exceeded 0.5%/cm of intestine.

Series [1] relates to lactase phlorizin hydrolase. Briefly: co-perfusion with LPH inhibitor gluconolactone in perfused rat intestinal model: inhibition of hydrolysis. In kind it is in vivo. The conditions noted are these: 10 μM flavonoid co-perfused with gluconolactone (40μM). Here is the method: This is a single-pass perfusion method. […] After a 30-min washout period, which is usually sufficient to achieve the steady-state absorption, four samples were collected from the outlet cannulae every 30 min afterward. After perfusion, the length of the intestine was measured as described previously The outlet concentrations of the test compounds in the luminal perfusate were determined by HPLC or LC/MS/MS. […] The total gluconolactone concentration was 40μM. After perfusion, perfusates were collected and determined by HPLC. […] The accuracy and precision were greater than 98%.

For `COc1ccc(-c2oc3c(CC=C(C)C)c(O)cc(O)c3c(=O)c2O[C@@H]2O[C@@H](C)[C@H](O)[C@@H](O)[C@H]2O)cc1` [baohuoside I], the “metabolites detected in the perfusate” value in the series with rat intestine is listed as “no metabolites were detected”.

In the case of `COc1ccc(-c2oc3c(CC=C(C)C)c(OC4OC(CO)C(O)C(O)C4O)cc(O)c3c(=O)c2OC2OC(C)C(O)C(O)C2OC2OC(CO)C(O)C(O)C2O)cc1` (stereo not shown) [epimedin A], in series [1], the “hydrolysis inhibition rate, colon” value is 14%; the “hydrolysis inhibition rate, duodenum” value is recorded as 55%; the “hydrolysis inhibition rate, ileum” value worked out at 21%; the “hydrolysis inhibition rate, jejunum” value was 26%. In the series with rat intestine, the “metabolites detected in the perfusate” value is given as “one metabolite” and the “identity of intestinal metabolite” value is listed as “sagittatoside A”.

Turning to `COc1ccc(-c2oc3c(CC=C(C)C)c(OC4OC(CO)C(O)C(O)C4O)cc(O)c3c(=O)c2OC2OC(C)C(O)C(O)C2OC2OCC(O)C(O)C2O)cc1` (stereo not shown) [epimedin B], in series [1], the “hydrolysis inhibition rate, colon” value came out at 22%; the “hydrolysis inhibition rate, duodenum” value turned out to be 42%; the “hydrolysis inhibition rate, ileum” value is recorded as 74%; the “hydrolysis inhibition rate, jejunum” value worked out at 40%. For the same compound, in the series with rat intestine, the “metabolites detected in the perfusate” value is listed as “one metabolite” and the “identity of intestinal metabolite” value is on record as “sagittatoside B”.

For the compound `COc1ccc(-c2oc3c(CC=C(C)C)c(OC4OC(CO)C(O)C(O)C4O)cc(O)c3c(=O)c2OC2OC(C)C(O)C(O)C2OC2OC(C)C(O)C(O)C2O)cc1` (stereo not shown) [epimedin C], in series [1], the “hydrolysis inhibition rate, colon” value was determined as 35%; the “hydrolysis inhibition rate, duodenum” value worked out at 42%; the “hydrolysis inhibition rate, ileum” value is reported as 52%; the “hydrolysis inhibition rate, jejunum” value was 40%. Besides, in the series with rat intestine, the “metabolites detected in the perfusate” value was “one metabolite” and the “identity of intestinal metabolite” value is 2″-O-rhamnosylicariside II.

`COc1ccc(-c2oc3c(CC=C(C)C)c(O[C@@H]4O[C@H](CO)[C@@H](O)[C@H](O)[C@H]4O)cc(O)c3c(=O)c2O[C@@H]2O[C@@H](C)[C@H](O)[C@@H](O)[C@H]2O)cc1` [icariin]: in series [1], the “hydrolysis inhibition rate, colon” value is listed as 46%; the “hydrolysis inhibition rate, duodenum” value was determined as 62%; the “hydrolysis inhibition rate, ileum” value was determined as 40%; the “hydrolysis inhibition rate, jejunum” value was 50%. Besides, in the series with rat intestine, the “metabolites detected in the perfusate” value is on record as “two metabolites” and the “identity of intestinal metabolite” value is reported as “baohuoside I”.
